Data as given in patent US9718799B2, “3-aryl-4H-chromene-4-ones as antineoplastic agents for the treatment of cancer” (The University of Kentucky Research Foundation, priority 2015, dated 2017).

Columns and labels:
[1] = tested on: PC3 prostate cancer cells; experiment: Cell proliferation assay in prostate cancer PC3 cells; format: cell-based; conditions: for inhibition at 10 µM: Homo sapiens, PC-3
Protocol: Cell Proliferation Assay:
PC3 prostate cancer cells were cultured in DMEM/F-12 HAM Mixture (Sigma D8437), 10% Fetal Bovine Serum (Atlanta Biological S11150). Before the treatment, 3.5×10^4 cells per well were split into 12-well plates. After 24 h, 10 μM of each compound was added to each well. DMSO was used as a control. This experiment was done in triplicate. Cell viability and number were analyzed using Vi-Cell XR Cell Viability Analyzer (Beckman Coulter).

Row | Compound | melting point | inhibition at 10 µM [1] | Inhibition at 10 μM (%) ([1]; Table 3, Diels-Alder adducts, inhibition of proliferation, PC3 cells, 10 μM)
1 | COc1ccc(-c2coc3c(CO)c(O)ccc3c2=O)cc1 [Isoflavonoid 9d, 7-Hydroxy-8-(hydroxymethyl)-3-(4-methoxyphenyl)-4H-chromen-4-one] | 150 to 152 °C (dec.) | 99.5 ± 0.2% | –
2 | COCc1c(OC)cc(O)c2c(=O)c(-c3ccccc3OC)coc12 [Isoflavonoid 11a, 5-Hydroxy-7-methoxy-8-(methoxymethyl)-3-(2-methoxyphenyl)-4H-chromen-4-one] | 154 to 155 °C | 0% | –
3 | COCc1c(O)ccc2c(=O)c(-c3ccccc3OC)coc12 [Isoflavonoid 11c, 7-Hydroxy-8-(methoxymethyl)-3-(2-methoxyphenyl)-4H-chromen-4-one] | 164 to 166 °C | 0% | –
4 | COc1ccc(-c2c(C)oc3c(COC(C)=O)c(OC(C)=O)ccc3c2=O)cc1 [Isoflavonoid 7e, 7-(Acetoxy)-8-(acetoxymethyl)-3-(4-methoxyphenyl)-2-methyl-4H-chromen-4-one] | 142 to 144 °C | 98.2 ± 1.5% | –
5 | COCc1c(OC)cc(O)c2c(=O)c(-c3ccc(OC)cc3)coc12 [Isoflavonoid 11b, 5-Hydroxy-7-methoxy-8-(methoxymethyl)-3-(4-methoxyphenyl)-4H-chromen-4-one] | 126 to 128 °C | 96.8 ± 0.8% | –
6 | COc1ccc(-c2coc3c4c(ccc3c2=O)OC2OCCC2C4)cc1OC (centres unmarked) [Isoflavonoid 20b, 3-(3,4-Dimethoxyphenyl)-9,10,10a,11-tetrahydro-4H,7aH-furo[2,3-b]pyrano[2,3-f]chromen-4-one] | 193 to 195 °C | – | –
7 | Cc1oc2c3c(ccc2c(=O)c1-c1ccccc1)OC1OCCC1C3 (centres unmarked) [Isoflavonoid 20f, 2-Methyl-3-phenyl-9,10,10a,11-tetrahydro-4H,7aH-furo[2,3-b]pyrano[2,3-f]chromen-4-one] | 181 to 182 °C | – | –
8 | COc1ccc(-c2coc3cc(OC)c(COC(C)=O)c(OC(C)=O)c3c2=O)cc1 [Isoflavonoid 6b, 5-Acetoxy-6-(acetoxymethyl)-7-methoxy-3-(4-methoxyphenyl)-4H-chromen-4-one] | – | 51.7 ± 5.7% | –
9 | COc1ccc(-c2c(C)oc3c4c(ccc3c2=O)OC2OCCC2C4)cc1OC (centres unmarked) [Isoflavonoid 20h, 3-(3,4-Dimethoxyphenyl)-2-methyl-9,10,10a,11-tetrahydro-4H,7aH-furo[2,3-b]pyrano[2,3-f]chromen-4-one] | 217 to 219 °C | – | –
10 | O=c1c(-c2ccc3c(c2)OCCO3)coc2c3c(ccc12)OC1OCCC1C3 (centres unmarked) [Isoflavonoid 20d, 3-(2,3-Dihydro-1,4-benzodioxin-6-yl)-9,10,10a,11-tetrahydro-4H,7aH-furo[2,3-b]pyrano[2,3-f]chromen-4-one] | 188 to 189 °C | – | –
11 | COc1ccc(-c2coc3c(C)c(O)c(CO)cc3c2=O)cc1 [Isoflavonoid 8c, 7-Hydroxy-6-(hydroxymethyl)-3-(4-methoxyphenyl)-8-methyl-4H-chromen-4-one] | 153 to 155 °C | – | –
12 | COCc1cc2c(=O)c(-c3ccc(OC)cc3)coc2c(C)c1O [Isoflavonoid 10c, 7-Hydroxy-6-(methoxymethyl)-3-(4-methoxyphenyl)-8-methyl-4H-chromen-4-one] | 143 to 145 °C | – | –
13 | COc1ccccc1-c1coc2c(COC(C)=O)c(OC(C)=O)ccc2c1=O [Isoflavonoid 7c, 7-(Acetoxy)-8-(acetoxymethyl)-3-(2-methoxyphenyl)-4H-chromen-4-one] | – | 20.6 ± 3.8% | –
14 | COc1ccc(-c2coc3c(COC(C)=O)c(OC)cc(OC(C)=O)c3c2=O)cc1 [Isoflavonoid 7b, 5-Acetoxy-8-(acetoxymethyl)-7-methoxy-3-(4-methoxyphenyl)-4H-chromen-4-one] | – | 20.2 ± 2% | –
15 | COc1ccc(-c2c(C)oc3c4c(ccc3c2=O)OC2OCCC2C4)cc1 (centres unmarked) [Isoflavonoid 20g, 3-(4-Methoxyphenyl)-2-methyl-9,10,10a,11-tetrahydro-4H,7aH-furo[2,3-b]pyrano[2,3-f]chromen-4-one] | 227 to 229 °C | – | –
16 | COc1ccc(-c2coc3c(C)c(OC(C)=O)c(COC(C)=O)cc3c2=O)cc1 [Isoflavonoid 6c, [7-(Acetyloxy)-3-(4-methoxyphenyl)-8-methyl-4-oxo-4H-chromen-6-yl]methyl acetate] | 136 to 138 °C | – | –
17 | COc1ccccc1-c1coc2cc(OC)c(COC(C)=O)c(OC(C)=O)c2c1=O [Isoflavonoid 6a, 5-Acetoxy-6-(acetoxymethyl)-7-methoxy-3-(2-methoxyphenyl)-4H-chromen-4-one] | – | 17.1 ± 5.9% | –
18 | 3-(4-Methoxyphenyl)-2,11-methyl-6a,7,8,9a-tetrahydro-4H,6H-furo[2,3-b]pyrano[3,2-g]chromen-4-one [Isoflavonoid 25g] | – | – | 61 ± 2%
19 | Cc1oc2c3c(ccc2c(=O)c1-c1ccc(Cl)cc1)OC1OCCC1C3 (centres unmarked) [Isoflavonoid 20i, 3-(4-Chlorophenyl)-2-methyl-9,10,10a,11-tetrahydro-4H,7aH-furo[2,3-b]pyrano[2,3-f]chromen-4-one] | 266 to 268 °C | – | –
20 | COCc1c(O)ccc2c(=O)c(-c3ccc(OC)cc3)c(C)oc12 [Isoflavonoid 11e, 7-Hydroxy-8-(methoxymethyl)-3-(4-methoxyphenyl)-2-methyl-4H-chromen-4-one] | 215 to 217 °C (dec.) | – | –

Now from value to compound, other results behind:

Row | melting point | Compound | inhibition at 10 µM [1] | Inhibition at 10 μM (%) ([1]; Table 3, Diels-Alder adducts, inhibition of proliferation, PC3 cells, 10 μM)
21 | 236 to 237 °C | COc1ccc(-c2c(C)oc3c4c(ccc3c2=O)OC2=C(C4)C(=O)CC(C)(C)C2)cc1 [Isoflavonoid 22g, 3-(4-Methoxyphenyl)-2,9,9-trimethyl-8,9,10,12-tetrahydro 4H,11H-pyrano[2,3-a]xanthene-4,11-dione] | – | –
22 | 223 to 225 °C | COc1ccc(-c2coc3c4c(ccc3c2=O)OC2=C(C4)C(=O)CC(C)(C)C2)cc1 [Isoflavonoid 22a, 3-(4-Methoxyphenyl)-9,9-dimethyl-8,9,10,12-tetrahydro-4H,11H-pyrano[2,3-a]xanthene-4,11-dione] | – | –
23 | 265 to 266 °C | Cc1oc2c3c(ccc2c(=O)c1-c1ccccc1)OC1=C(C3)C(=O)CC(C)(C)C1 [Isoflavonoid 22f, 2,9,9-trimethyl-3-phenyl-8,9,10,12-tetrahydro-4H,11H-pyrano[2,3-a]xanthene-4,11-dione] | – | –
24 | 270 to 272 °C | COc1ccc(-c2c(C)oc3c(C)c4c(cc3c2=O)CC2=C(CC(C)(C)CC2=O)O4)cc1 [Isoflavonoid 26g, 3-(4-Methoxyphenyl)-2,9,9,12-tetramethyl-6,8,9,10-tetrahydro-4H,7H-pyrano[3,2-b]xanthene-4,7-dione] | – | –
25 | 160 to 162 °C | O=c1c(-c2ccc3c(c2)OCCO3)coc2c3c(ccc12)OC1OCCCC1C3 (centres unmarked) [Isoflavonoid 21d, 3-(2,3-Dihydro-1,4-benzodioxin-6-yl)-10,11,11a,12-tetrahydro-4H,7aH,9H-dipyrano[2,3-b:2′,3′-f]chromen-4-one] | 48 ± 3% | –
26 | 182 to 183 °C | COc1ccc(-c2coc3c4c(ccc3c2=O)OC2OCCCC2C4)cc1 (centres unmarked) [Isoflavonoid 21a, 3-(4-Methoxyphenyl)-10,11,11a,12-tetrahydro-4H,7aH,9H-dipyrano[2,3-b:2′,3′-f]chromen-4-one] | 73 ± 6% | –
27 | 197 °C | O=c1c(-c2ccc3c(c2)OCO3)coc2c3c(ccc12)OC1(O)CCCCC1C3 (centres unmarked) [Isoflavonoid 24c, 3-(1,3-Benzodioxol-5-yl)-7a-hydroxy-8,9,10,11,11a,12-hexahydro-4H,7aH-pyrano[2,3-a]xanthen-4-one] | – | –
28 | 205 to 206 °C | Cc1oc2c3c(ccc2c(=O)c1-c1ccc(Cl)cc1)OC1OCCCC1C3 (centres unmarked) [Isoflavonoid 21i, 3-(4-Chlorophenyl)-2-methyl-10,11,11a,12-tetrahydro-4H,7aH,9H-dipyrano[2,3-b:2′,3′-f]chromen-4-one] | 74 ± 3% | –
29 | 195 to 197 °C | O=c1c(-c2ccc(Cl)cc2)coc2c3c(ccc12)OC1OCCCC1C3 (centres unmarked) [Isoflavonoid 21e, 3-(4-Chlorophenyl)-10,11,11a,12-tetrahydro-4H,7aH,9H-dipyrano[2,3-b:2′,3′-f]chromen-4-one] | 44 ± 4% | –
30 | 258 to 260 °C | CC1(C)CC(=O)C2=C(C1)Oc1ccc3c(=O)c(-c4ccc5c(c4)OCO5)coc3c1C2 [Isoflavonoid 22c, 3-(1,3-Benzodioxol-5-yl)-9,9-dimethyl-8,9,10,12-tetrahydro-4H,11H-pyrano[2,3-a]xanthene-4,11-dione] | – | –
31 | 193 to 194 °C | COc1ccc(-c2c(C)oc3c4c(ccc3c2=O)OC2(O)CCCCC2C4)cc1OC (centres unmarked) [Isoflavonoid 24h, 3-(3,4-Dimethoxyphenyl)-7a-hydroxy-2-methyl-8,9,10,11,11a,12-hexahydro-4H,7aH-pyrano[2,3-a]xanthen-4-one] | – | –
32 | 230 to 232 °C | COc1ccc(-c2coc3c(C)c4c(cc3c2=O)CC2=C(CC(C)(C)CC2=O)O4)cc1 [Isoflavonoid 26a, 3-(4-Methoxyphenyl)-9,9,12-trimethyl-6,8,9,10-tetrahydro-4H,7H-pyrano[3,2-b]xanthene-4,7-dione] | – | –
33 | 88 to 90 °C | COc1ccc(-c2c(C)oc3c(CC4CCCC4=O)c(O)ccc3c2=O)cc1OC (centres unmarked) [Isoflavonoid 23h, 3-(3,4-Dimethoxyphenyl)-7-hydroxy-2-methyl-8-[(2-oxocyclopentyl)methyl]-4H-chromen-4-one] | – | –
34 | 210 to 211 °C | COc1ccc(-c2c(C)oc3c(CC4CCCC4=O)c(O)ccc3c2=O)cc1 (centres unmarked) [Isoflavonoid 23g, 7-Hydroxy-3-(4-methoxyphenyl)-2-methyl-8-[(2-oxocyclopentyl)methyl]-4H-chromen-4-one] | – | –
35 | 165 to 167 °C | Cc1oc2c3c(ccc2c(=O)c1-c1ccccc1)OC1OCCCC1C3 (centres unmarked) [Isoflavonoid 21f, 2-Methyl-3-phenyl-10,11,11a,12-tetrahydro-4H,7aH,9H-dipyrano[2,3-b:2′,3′-f]chromen-4-one] | – | –
